# Measured values taken from PubChem BioAssay (NCI).
#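 Abbreviation: GI50, concentration required for 50% inhibition of growth. TGI denotes the concentration required for complete inhibition of growth.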
# Assays:
# Experiment in all cases: DTP human tumour cell line panel, 384-well format
# UACC-62 melanoma = system: UACC-62 melanoma
# HOP-92 NSCLC = system: HOP-92 NSCLC
# 786-0 renal = system: 786-0 renal
# TK-10 renal = system: TK-10 renal
# HCT-15 colon = system: HCT-15 colon
# HCT-116 colon = system: HCT-116 colon
# OVCAR-3 ovarian = system: OVCAR-3 ovarian
# MALME-3M melanoma = system: MALME-3M melanoma
# DU-145 prostate = system: DU-145 prostate
# CAKI-1 renal = system: CAKI-1 renal
# SK-MEL-5 melanoma = system: SK-MEL-5 melanoma
# MCF7 breast = system: MCF7 breast
# PC-3 prostate = system: PC-3 prostate
compound,measurement,setting,value
C[C@@H]1Cc2c(ccc3[nH]ncc23)[C@@H](c2ccc(NC3CN(CCCF)C3)cn2)N1CC(F)(F)F,GI50,UACC-62 melanoma,13.8 µM
same,TGI,UACC-62 melanoma,26.8 µM
same,GI50,HOP-92 NSCLC,13 µM
same,TGI,HOP-92 NSCLC,25.7 µM
same,GI50,786-0 renal,15.2 µM
same,TGI,786-0 renal,28.5 µM
same,GI50,TK-10 renal,16.6 µM
same,TGI,TK-10 renal,30.5 µM
same,GI50,HCT-15 colon,16.4 µM
same,TGI,HCT-15 colon,30.3 µM
same,GI50,HCT-116 colon,13.3 µM
same,TGI,HCT-116 colon,26.2 µM
same,GI50,OVCAR-3 ovarian,14.5 µM
same,TGI,OVCAR-3 ovarian,27.7 µM
same,GI50,MALME-3M melanoma,13.8 µM
same,TGI,MALME-3M melanoma,26.7 µM
same,GI50,DU-145 prostate,18.5 µM
same,TGI,DU-145 prostate,37.7 µM
same,GI50,CAKI-1 renal,13.7 µM
same,TGI,CAKI-1 renal,26.7 µM
same,GI50,SK-MEL-5 melanoma,14.8 µM
same,TGI,SK-MEL-5 melanoma,28 µM
same,GI50,MCF7 breast,< 0.01 µM
same,TGI,MCF7 breast,13.5 µM
same,GI50,PC-3 prostate,14.9 µM
same,TGI,PC-3 prostate,28.6 µM
